Columns and labels:
Format in all cases: in vivo
[1] = tested on: common cutworm (Spodoptera Litura); assay: Insecticidal effect on common cutworm (Test Example 2); settings: 500 ppm, 25° C.; for Insecticidal effect (Test Example 2), judged from mortality / Insecticidal effect on common cutworm (Test Example 2), judged grade: cabbage leaf dip; for Insecticidal effect (Test Example 2), judged from mortality: 8 days after inoculation; for Insecticidal effect, Test Example 2: cabbage leaf immersed; for Insecticidal effect, Test Example 2 / Insecticidal effect on common cutworm (Test Example 2), judged grade: eight days after inoculation; for Insecticidal effect on common cutworm (Test Example 2), judged grade: second-instar larvae
Procedure: Insecticidal effect on common cutworm (Spodoptera Litura)
After air-drying, it was placed in a plastic Petri dish with a diameter of 9 cm and inoculated with second-instar larvae of common cutworm, after which the dish was closed and then allowed to stand in a room thermostated at 25° C. Eight days after the inoculation, the dead and alive were counted. The mortality was calculated according to the following equation and the insecticidal effect was judged according to the criterion shown in Test Example 1. The test was carried out with triplicate groups of 10 insects. [formula]

[2] = tested on: diamondback moth (Plutella xylostella); assay: Insecticidal effect on diamondback moth (Test Example 1); settings: for Insecticidal effect (Test Example 1), judged from mortality / Insecticidal effect, Test Example 1: diamondback moth; for Insecticidal effect (Test Example 1), judged from mortality: judged by the criterion of Test Example 1; for Insecticidal effect, Test Example 1: judged by the mortality criterion of Test Example 1; for Insecticidal effect on diamondback moth (Test Example 1), judged grade: mortality judged according to the criterion shown in Test Example 1
Summary of the method: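 Read-out was mortality from hatched-insect counts taken 6 days after the egg-bearing cabbage seedling was immersed, graded by set criteria. Seedlings were air-dried and kept at 25° C after treatment. Groups of 10 insects, in triplicate.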

[3] = tested on: rice leafroller (Cnaphalocrocis medinalis); assay: Insecticidal effect on rice leafroller (Test Example 3); settings: 500 ppm, rice lamina dip, third-instar larvae of rice leafroller, 4 days after inoculation, 25° C., humidity 70%
Summary of the method: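 Groups of 10 third-instar larvae, in triplicate, are placed on air-dried lamina resting on wet filter paper. Incubation runs four days at 25° C with 70% humidity before survivors and dead are tallied.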

[4] = second-instar larvae of common cutworm
[5] = common cutworm second-instar larvae

Compound | Insecticidal effect (Test Example 1), judged from mortality [2] | Insecticidal effect, Test Example 2 [1, 4] | Insecticidal effect, Test Example 1 [2] | also measured
Cc1cc2c(cc1NC(=O)c1cccc(Cl)c1C(=O)NC(C)C)OC(F)(F)C(F)O2 (racemic) [compound 1597] | A (100) |  |  | Insecticidal effect (Test Example 2), judged from mortality [1, 4]: A (100)
Cc1cc2c(cc1NC(=O)c1cccc(I)c1C(=O)NC(C)C)OC(F)(F)C(F)O2 (racemic) [compound 1598] | A (100) |  |  | Insecticidal effect (Test Example 2), judged from mortality [1, 4]: A (100)
Cc1cc2c(cc1NC(=O)c1cccc(I)c1C(=O)NC(C)(C)C)OC(F)(F)C(F)O2 (racemic) [compound 1599] | A (100) |  |  | Insecticidal effect (Test Example 2), judged from mortality [1, 4]: A (100)
CC(C)NC(=O)c1c(I)cccc1C(=O)Nc1cc2c(cc1Cl)OC(F)C(F)(F)O2 (racemic) [compound 1600] | A (100) |  |  | Insecticidal effect (Test Example 2), judged from mortality [1, 4]: A (100)
CC(C)NC(=O)c1c(I)cccc1C(=O)Nc1cc2c(cc1Cl)OC(F)(F)C(F)O2 (racemic) [compound 1601] | A (100) |  |  | Insecticidal effect (Test Example 2), judged from mortality [1, 4]: A (100)
CNC(=O)c1ccccc1C(=O)Nc1ccc(C(F)(F)F)cc1 [compound 2] |  | C (89-80) | A (100) | 
CCN(CC)C(=O)c1ccccc1C(=O)Nc1ccc(C(F)(F)F)cc1 [compound 12] |  | D (79-50) | A (100) | 
CC(C)NC(=O)c1ccccc1C(=O)Nc1ccc([N+](=O)[O-])cc1 [compound 22] |  | D (79-50) | A (100) | 
CC(C)NC(=O)c1ccccc1C(=O)Nc1ccc(SC(F)(F)C(F)F)cc1 [compound 34] |  | C (89-80) | A (100) | 
CC(C)NC(=O)c1ccccc1C(=O)Nc1ccc(F)c(F)c1 [compound 43] |  | D (79-50) | B (99-90) | 
Cc1cc(OCC(F)(F)C(F)F)ccc1NC(=O)c1cccc(Cl)c1C(=O)NC(C)C [compound 147] |  | C (89-80) | A (100) | 
CC(C)NC(=O)c1c(Cl)cccc1C(=O)Nc1ccc(OC(F)F)c(C(F)(F)F)c1 [compound 164] |  | A (100) | A (100) | 
CC(C)NC(=O)c1cc(Cl)ccc1C(=O)Nc1ccc(F)cc1 [compound 169] |  | D (79-50) | A (100) | 
CC(C)NC(=O)c1ccc(Cl)cc1C(=O)Nc1ccccc1 [compound 181] |  | A (100) |  | 
Cc1ccccc1NC(=O)c1cc(Cl)ccc1C(=O)NC(C)C [compound 183] |  | B (99-90) | A (100) | 
Cc1cc(OC(F)F)ccc1NC(=O)c1cc(Cl)ccc1C(=O)NC(C)C [compound 193] |  | D (79-50) | A (100) | 
Cc1ccc(Cl)cc1NC(=O)c1c(Cl)cccc1C(=O)NC(C)C [compound 215] |  | D (79-50) | A (100) | 
Cc1cc(OC(F)(F)C(F)OC(F)(F)F)ccc1NC(=O)c1c(Cl)cccc1C(=O)NC(C)C (stereo not drawn) [compound 244] |  | C (89-80) | A (100) | 
Cc1cc(OC(F)F)c(Cl)cc1NC(=O)c1c(Cl)cccc1C(=O)NC(C)C [compound 245] |  | D (79-50) | A (100) | 
Cc1cc(Oc2c(F)c(F)c(F)c(F)c2F)ccc1NC(=O)c1c(Cl)cccc1C(=O)NC(C)C [compound 248] |  | C (89-80) | A (100) | 
CC(C)NC(=O)c1cccc(Cl)c1C(=O)Nc1ccc(OC(F)F)c(C(F)(F)F)c1 [compound 254] |  | A (100) | A (100) | 
Cc1ccc(NC(=O)c2c(Br)cccc2C(=O)NC(C)C)c(C)c1Cl [compound 309] |  | A (100) | A (100) | 
COc1ccc(NC(=O)c2c(Br)cccc2C(=O)NC(C)C)c(C)c1C [compound 321] |  | A (100) | A (100) | 
CC(C)NC(=O)c1cccc(I)c1C(=O)Nc1ccc(SC(F)(F)C(F)(F)C(F)(F)F)cc1 [compound 424] |  | A (100) | A (100) | 

Compound | Insecticidal effect (Test Example 1), judged from mortality [2] | Insecticidal effect, Test Example 2 [1, 4] | Insecticidal effect, Test Example 1 [2] | also measured
Cc1ccc(NC(=O)c2c(I)cccc2C(=O)NC(C)C)c(C)c1Cl [compound 429] |  | D (79-50) | A (100) | 
Cc1cc(I)ccc1NC(=O)c1c(I)cccc1C(=O)NC(C)C [compound 431] |  | A (100) | A (100) | 
COc1ccc(NC(=O)c2c(I)cccc2C(=O)NC(C)C)c(C)c1C [compound 451] |  |  |  | Insecticidal effect on common cutworm (Test Example 2), judged grade [1]: A (100); Insecticidal effect on diamondback moth (Test Example 1), judged grade [2]: A (100)
Cc1cc(Oc2ccc(C(F)(F)F)cn2)ccc1NC(=O)c1c(I)cccc1C(=O)NC(C)C [compound 460] |  |  |  | Insecticidal effect on common cutworm (Test Example 2), judged grade [1]: B (99-90); Insecticidal effect on diamondback moth (Test Example 1), judged grade [2]: A (100)
CC(C)NC(=O)c1cccc(F)c1C(=O)Nc1ccc(C(F)(F)C(F)(F)C(F)(F)F)cc1 [compound 535] |  |  |  | Insecticidal effect on common cutworm (Test Example 2), judged grade [1]: A (100); Insecticidal effect on diamondback moth (Test Example 1), judged grade [2]: A (100)
CC(C)NC(=O)c1c(C(=O)Nc2cc(C(F)(F)F)cc(C(F)(F)F)c2)cccc1[N+](=O)[O-] [compound 654] |  |  |  | Insecticidal effect on common cutworm (Test Example 2), judged grade [1]: D (79-50)
CSc1cccc(C(=O)NC(C)C)c1C(=O)Nc1cccc(Cl)c1C [compound 785] |  |  |  | Insecticidal effect on common cutworm (Test Example 2), judged grade [1]: A (100)
Cc1ccc(OCCNC(=O)c2c(C(=O)Nc3cc(Cl)ccc3C)cccc2[N+](=O)[O-])c(C)c1 [compound 880] |  |  |  | Insecticidal effect on common cutworm (Test Example 2), judged grade [1]: D (79-50)
Cc1cc(C#Cc2ccc(Cl)cc2Cl)ccc1NC(=O)c1cccc(I)c1C(=O)NC(C)C [compound 972] |  |  |  | Insecticidal effect, Test Example 2 [1, 5]: A (100)
CC(C)NC(=O)c1ccccc1C(=O)Nc1ccc(SC(F)(F)F)cc1 [compound 1123] |  |  |  | Insecticidal effect, Test Example 2 [1, 5]: A (100)
CC(C)NC(=O)c1c(I)cccc1C(=O)Nc1ccc2c(c1Cl)OC(F)(F)C(F)(F)O2 [compound 1732] |  |  |  | Insecticidal effect (Test Example 2), judged from mortality [1, 4]: A (100)
CC(C)NC(=O)c1c(I)cccc1C(=O)Nc1c(Cl)ccc2c1OC(F)(F)O2 [compound 1743] | A (100) |  |  | Insecticidal effect (Test Example 3), judged from mortality [3]: A (100)
CC(C)(C)NC(=O)c1c(I)cccc1C(=O)Nc1c(Cl)cc(Cl)c2c1OC(F)(F)O2 [compound 1748] | A (100) |  |  | Insecticidal effect (Test Example 3), judged from mortality [3]: A (100)
C=CCON=C(C)c1ccc(NC(=O)c2cccc(I)c2C(=O)NC(C)C)cc1 [compound 1750] | A (100) |  |  | Insecticidal effect (Test Example 3), judged from mortality [3]: A (100)
CCN(CC)C(=O)c1ccccc1C(=O)Nc1ccc(Cl)cc1C [compound 1752] | A (100) |  |  | Insecticidal effect (Test Example 3), judged from mortality [3]: A (100)
CC(C)NC(=O)c1c(I)cccc1C(=O)Nc1ccc(C(C)C)c2scnc12 [compound 1763] | A (100) |  |  | Insecticidal effect (Test Example 3), judged from mortality [3]: A (100)
CC(C)NC(=O)c1c(I)cccc1C(=O)Nc1ccc(C(F)(C(F)(F)F)C(F)(F)F)cc1Oc1ccccc1 [compound 1768] | A (100) |  |  | Insecticidal effect (Test Example 3), judged from mortality [3]: A (100)
Cc1cc(C(F)(C(F)(F)F)C(F)(F)F)ccc1NC(=O)c1cccc(I)c1C(=O)NCCc1cccnc1 [compound 1770] | A (100) |  |  | Insecticidal effect (Test Example 3), judged from mortality [3]: A (100)
Cc1cc(OC(F)(F)F)ccc1NC(=O)c1cccc(I)c1C(=O)NCCc1cccnc1 [compound 1772] | A (100) |  |  | Insecticidal effect (Test Example 3), judged from mortality [3]: A (100)
Cc1cc(C(F)(C(F)(F)F)C(F)(F)F)ccc1NC(=O)c1c(I)cccc1C(=O)NC(C)c1ccccn1 (stereo not drawn) [compound 1774] | A (100) |  |  | Insecticidal effect (Test Example 3), judged from mortality [3]: A (100)
Cc1cc(OC(F)(F)F)ccc1NC(=O)c1cccc(I)c1C(=O)NC(C)c1ccccn1 (stereo not drawn) [compound 1775] | A (100) |  |  | Insecticidal effect (Test Example 3), judged from mortality [3]: A (100)
Cc1cc(OC(F)(F)F)ccc1NC(=O)c1c(I)cccc1C(=O)NC(C)c1ccccn1 (stereo not drawn) [compound 1776] | A (100) |  |  | Insecticidal effect (Test Example 3), judged from mortality [3]: A (100)
Cc1cc(C(F)(F)C(F)(F)F)ccc1NC(=O)c1c(I)cccc1C(=O)NC(C)c1ccccn1 (stereo not drawn) [compound 1778] | A (100) |  |  | Insecticidal effect (Test Example 3), judged from mortality [3]: A (100)
